Data: US20260001898A1, “Heteroaryl compounds as inhibitors of TYK2/JAK1, composition and application thereof” (Accro Bioscience (HK) Limited, priority 2022, published 2026)

Assays:
[1] = system: IFNα induced TYK2/JAK1 mediated STAT activation; experiment: Luciferase assay in L929 ISRE cells stimulated with IFN-α; type: cell-based; conditions: Mus musculus, IFN-α 100 ng/mL; for inhibition at 0.05 µM: 50 nM compound, read-out: Inhibitory activity % (50 nM); for inhibition at 0.2 µM: 200 nM compound, read-out: Inhibitory activity % (200 nM); for inhibition at 1 µM: 1000 nM compound, read-out: Inhibitory activity % (1000 nM)
Experimental: • 1. L929 ISRE cells (5000 cells/well) were seeded on 96-well plates and incubated overnight at room temperature-; • 2. The cells were pretreated by adding different concentrations (10 nM, 50 nM, 100 nM, 200 nM or 1000 nM) of the test compounds for 2 hours; • 3. Added IFN-α (100 ng/mL) to stimulate cells for 6 hours; • 4. Removed the upper medium, add PBS (100 μL) and washed, then removed PBS; • 5. Added PLB lysis solution (50 μL) to each well, shook the well for 15 minutes; • 6. Transferred PLB lysis solution (30 μL) to a new 96-well whiteboard, added LAR II reagent (LAR II), then quickly read the 450 nm OD value with a plate washer; • 7. Added Stop & Glo reagent (30 μL), then read the 450 nm OD value using the plate washer. • 8. The final result was the OD value in step 6/OD value in step 7.

[2] = system: JAK1/JAK2 pathway; experiment: Western blot p-STAT1/STAT1 in IFN-γ-stimulated HT-29 cells; type: cell-based; conditions: IFN-γ 100 ng/mL
Experimental: HT-29 cells were digested by trypsin and suspended in Dulbecco's Modified Eagle Medium (DMEM) and counted. The tested compounds were added into the 6 well plates (400 000/per well). After 2 hours, IFN-γ (100 ng/mL) was added to stimulate cells for 30 minutes. The cells were collected and lysed with protein lysate. The protein was quantitatively tested by BCA kit. Finally, p-STAT1/STAT1 and internal reference protein β-actin were detected by Western blot.

[3] = system: TYK2/JAK2 pathway; experiment: Western blot p-STAT4/STAT4 in IL-12-stimulated mouse spleen cells; type: cell-based, mice; conditions: IL-12 50 ng/mL
Experimental: The spleen of mice was isolated and ground into single cells with bent tweezers. The single cells of the spleen were centrifuged for 5 minutes (400 g), and erythrocytes were lysed with Ammonium-Chloride-Potassium (ACK) solution and neutralized in 1640 medium, centrifuged for 5 minutes (400 g), and then re-suspended in 1640 medium. The spleen single cell suspension was counted, transferred to and incubated on a 6-well plate (5 million/well). The compounds to be tested were added. After 2 hours, IL-12 (50 ng/mL) was added to stimulate the cells for 1 h. The cells were collected and lysed with protein lysate. The protein was quantitatively tested by BCA kit. Finally, p-STAT4/STAT4 and internal reference protein […] were detected by Western blot.

[4] = system: JAK2/JAK2 pathway; experiment: Western blot p-STAT3/STAT3 in TPO-stimulated HEL cells; type: cell-based; conditions: TPO 100 ng/mL
Experimental: HEL cells were digested by trypsin, re-suspended in 1640 medium and counted. The compounds to be measured were added to 6 well plates (1 million/per well) for 2 hours, and then thrombopoietin (TPO)(final concentration: 100 ng/mL) was added to stimulate cells for 30 minutes. The cells were collected and lysed with protein lysate. The protein was quantitatively tested by bicinchoninic acid (BCA) kit. Finally, p-STAT3/STAT3 and internal reference protein β-actin were detected by Western blot.

Compound	inhibition at 0.05 µM [1] [%]	inhibition at 0.2 µM [1] [%]	inhibition at 1 µM [1] [%]	effect on downstream STAT1 phosphorylation induced by IFN-γ (JAK1/JAK2 pathway) [2]	inhibition of downstream STAT4 phosphorylation induced by IL-12 (TYK2/JAK2 pathway) [3]	effect on TPO-induced downstream STAT3 phosphorylation (JAK2/JAK2 pathway) [4]
COc1c(Nc2cc(NC(=O)C3CC3)ncc2C(N)=O)cccc1-c1cc(P(=O)(C2CC2)C2CC2)n(C)n1 [Compound A2, 6-(cyclopropanecarboxamido)-4-((3-(5-(dicyclopropylphosphoryl)-1-methyl-1H-pyrazol-3-yl)-2-methoxyphenyl)amino)nicotinamide]	26	57	94	inhibited JAK1/JAK2 pathway in a concentration-dependent manner		
COc1c(Nc2cc(NC(=O)C3CC3)nnc2C(N)=O)cc(F)cc1-c1cc(P(=O)(C2CC2)C2CC2)n(C)n1 [Compound A8]	84	88	96	inhibited JAK1/JAK2 pathway in a concentration-dependent manner	effectively inhibited the downstream STAT4 phosphorylation induced by IL-12	
COc1c(Nc2cc(Nc3ccc(F)cn3)nnc2C(N)=O)cccc1-c1cc(P(=O)(C2CC2)C2CC2)n(C)n1 [Compound A9]				inhibited JAK1/JAK2 pathway in a concentration-dependent manner	effectively inhibited the downstream STAT4 phosphorylation induced by IL-12	
COc1c(Nc2cc(Nc3cc(C)ccn3)nnc2C(N)=O)cccc1-c1cc(P(=O)(C2CC2)C2CC2)n(C)n1 [Compound A12]	25	33	93	inhibited JAK1/JAK2 pathway in a concentration-dependent manner	effectively inhibited the downstream STAT4 phosphorylation induced by IL-12	had no effect on TPO-induced downstream STAT3 phosphorylation
COc1c(Nc2cc(Nc3ccn(C)n3)nnc2C(N)=O)cccc1-c1cc(P(=O)(C2CC2)C2CC2)n(C)n1 [Compound A17]		42	82	inhibited JAK1/JAK2 pathway in a concentration-dependent manner	effectively inhibited the downstream STAT4 phosphorylation induced by IL-12	had no effect on TPO-induced downstream STAT3 phosphorylation
COc1c(Nc2cc(Nc3cc(C)ccn3)nnc2C(N)=O)cccc1-c1cc(P(C)(C)=O)n(C)n1 [Compound A29]			93	inhibited JAK1/JAK2 pathway in a concentration-dependent manner	effectively inhibited the downstream STAT4 phosphorylation induced by IL-12	had no effect on TPO-induced downstream STAT3 phosphorylation
COc1c(Nc2cc(Nc3cc(C#N)ccn3)nnc2C(N)=O)cccc1-c1cc(P(=O)(C2CC2)C2CC2)n(C)n1 [Compound A35]	54	84	98	inhibited JAK1/JAK2 pathway in a concentration-dependent manner	effectively inhibited the downstream STAT4 phosphorylation induced by IL-12	had no effect on TPO-induced downstream STAT3 phosphorylation
[2H]C([2H])([2H])n1nc(-c2cccc(Nc3cc(Nc4cc(C#N)ccn4)nnc3C(N)=O)c2OC)cc1P(=O)(C1CC1)C1CC1 [Compound A49]	33	86	87	inhibited JAK1/JAK2 pathway in a concentration-dependent manner	effectively inhibited the downstream STAT4 phosphorylation induced by IL-12	had no effect on TPO-induced downstream STAT3 phosphorylation
[2H]C([2H])([2H])n1nc(-c2cccc(Nc3cc(Nc4ccc(OC)cn4)nnc3C(N)=O)c2OC)cc1P(=O)(C1CC1)C1CC1 [Compound A50]			77	inhibited JAK1/JAK2 pathway in a concentration-dependent manner	effectively inhibited the downstream STAT4 phosphorylation induced by IL-12	had no effect on TPO-induced downstream STAT3 phosphorylation
COc1c(Nc2cc(NC(=O)C3CC3)ncc2C(N)=O)cccc1-c1ccc(P(C)(C)=O)cc1 [Compound A61, 6-(cyclopropanecarboxamido)-4-((4′-(dimethylphosphoryl)-2-methoxy-[1,1′-biphenyl]-3-yl)amino)nicotinamide]	8	23	59			
COc1c(Nc2cc(NC(=O)C3CC3)ncc2C(N)=O)cccc1-c1ccc(P(C)(C)=O)nc1 [Compound A62]	3	5	56			
COc1c(Nc2cc(NC(=O)C3CC3)ncc2C(N)=O)cccc1-c1cnc(P(C)(C)=O)cn1 [Compound A63, 6-(cyclopropanecarboxamido)-4-((3-(5-(dimethylphosphoryl)pyrazin-2-yl)-2-methoxyphenyl)amino)nicotinamide]	33	43	75			
COc1cccnc1Nc1cc(Nc2cccc(-c3cc(P(=O)(C4CC4)C4CC4)n(C)n3)c2OC)c(C(N)=O)nn1 [Compound A65]	36	43	93			
COc1ccnc(Nc2cc(Nc3cccc(-c4cc(P(=O)(C5CC5)C5CC5)n(C)n4)c3OC)c(C(N)=O)nn2)c1 [Compound A66]	59	82	96			
COc1cccc(Nc2cc(Nc3cccc(-c4cc(P(=O)(C5CC5)C5CC5)n(C)n4)c3OC)c(C(N)=O)nn2)n1 [Compound A67]	88	95	95			
COc1cc(P(=O)(C2CC2)C2CC2)ccc1Nc1cc(Nc2cc(C)ccn2)nnc1C(N)=O [Compound B1, 4-((4-(dicyclopropylphosphoryl)-2-methoxyphenyl)amino)-6-((4-methylpyridin-2-yl)amino)pyridazine-3-carboxamide]			0			
CCP(=O)(CC)c1ccc(Nc2cc(NC(=O)C3CC3)ncc2C(N)=O)c(OC)c1 [Compound B3, 6-(cyclopropanecarboxamido)-4-((4-(diethylphosphoryl)-2-methoxyphenyl)amino)nicotinamide]			19			
COc1cc(P(=O)(C2CC2)C2CC2)ccc1Nc1cc(Nc2ccccn2)nnc1C(N)=O [Compound B4]			8			
COc1cc(P(=O)(C2CC2)C2CC2)ccc1Nc1cc(NC(=O)C2CC2)nnc1C(N)=O [Compound B5]			0			
COc1cc(P(=O)(C2CC2)C2CC2)ccc1Nc1cc(Nc2ccn(C)n2)nnc1C(N)=O [Compound B7]			0			
N#CC[C@H](C1CCCC1)n1cc(-c2ncnc3[nH]ccc23)cn1 [Ruxolitinib, reference compound]				inhibited JAK1/JAK2 pathway in a concentration-dependent manner		can inhibit the JAK2/JAK2 pathway
